Measurements: the SangsterLogP compilation

assay: method code SF, from DOI: 10.1016/0223-5234(90)90118-m

Row | SMILES | logP
1 | O=C(Nc1ccc2nn(C3CCCC3)nc2c1)c1ccccc1 | 3.85
2 | CCOC(=O)Nc1ccc2nn(C3CCCC3)nc2c1 | 3.43
3 | O=C(Nc1ccc2nn(C3CCCC3)nc2c1)C(Cl)(Cl)Cl | 4.12
4 | CC(=O)Nc1ccc2nn(C3CCCC3)nc2c1 | 2.45
5 | CS(=O)(=O)Nc1ccc2nn(C3CCCC3)nc2c1 | 2.44
6 | CC(C)COC(=O)Nc1ccc2nn(C3CCCC3)nc2c1 | 4.28
7 | O=C(CCl)Nc1ccc2nn(C3CCCC3)nc2c1 | 2.78
8 | O=C(Nc1ccc2nn(C3CCCC3)nc2c1)c1ccc([N+](=O)[O-])cc1 | 3.75
9 | COc1ccc(C(=O)Nc2ccc3nn(C4CCCC4)nc3c2)cc1 | 4.03
10 | O=C(Nc1ccc2nn(C3CCCC3)nc2c1)c1ccc(C(F)(F)F)cc1 | 4.95

assay: not given

Row | SMILES | logP
11 | CC(C)(C)C(=O)c1cccc2nn(C3CCCC3)nc12 | 3.4
12 | O=C(Nc1ccc2nn(C3CCCC3)nc2c1)C(Cl)Cl | 3.4
13 | Cc1ccc(S(=O)(=O)Nc2ccc3nn(C4CCCC4)nc3c2)cc1 | 3.91
14 | COc1cc(C(=O)Nc2ccc3nn(C4CCCC4)nc3c2)cc(OC)c1OC | 3.87
15 | CC(=O)N(C(C)=O)c1ccc2nn(C3CCCC3)nc2c1 | 2.73
16 | O=[N+]([O-])c1ccc(S(=O)(=O)Nc2ccc3nn(C4CCCC4)nc3c2)cc1 | 3.82
17 | O=C(Nc1ccc2nn(C3CCCC3)nc2c1)c1ccc(Cl)c(Cl)c1 | 5.32
18 | O=C(Nc1ccc2nn(C3CCCC3)nc2c1)c1ccc(Cl)cc1 | 4.11
